# Source: patent publication US20140309171A1, “MARKER FOR BLOOD COAGULATION” (Universite Catholique De Louvain, priority 2011, published 2014)
# “Also recorded” adds a separate entry of the source.
# Experiments:
# [1] = system: AMPK Thr172 phosphorylation in human platelets; assay: Western blot of AMPK Thr172 phosphorylation in human platelets; assay type: cell-based; settings: 10 μM STO-609, thrombin-treated human platelets (not shown)
# Procedure: Washed human platelets (used in in vitro studies). Platelets were obtained from adult healthy volunteers in accordance with the Ethics Commission of our institution (Commission d'Ethique Biomédicale Hospitalo-Facultaire, Université catholique de Louvain). Whole blood was collected with butterfly needle 21G into Sodium Citrate 1:10 solution (S-monovette). Platelet-rich plasma (PRP) was obtained by 15 min centrifugation at 330 g. The platelets pellet was then washed in Tyrode modified buffer (135 mM NaCl, 12 mM NaHCO3, 1 mM Sodium Citrate, 2.9 mM KCl, 0.3 mM Na2HPO4, 1 mM MgCl2, 5 mM D-glucose, 10 mM Hepes, 0.35% bovine serum albumin (BSA), pH 7.4 at 37° C.) and resuspended to a density of 2.5 10^5 platelets/μl for the measurement of intracellular Ca^2+ or platelet aggregation. For Western Blot analysis, PRP with eptifibatide 4 μg/ml (Integriline, GlaxoSmithKline) and ectonucleotidase apyrase (grade I) 0.5 U/ml was layered over a density barrier of iodixanol (Optiprep®) that allowed the erythrocytes and leucocytes to pellet during centrifugation at 350 g for 15 min. […] Bound antibodies were detected by enhanced chemiluminescence (Thermofisher). […] Band intensities were quantified by scanning and processing image intensities with the program ImageJ (1.33 for Mac OS X). The quantification of immunoblots presented in results was obtained after normalization using the internal loading control.
# [2] = system: P-selectin (CD62P) on human platelet surface; assay: Flow cytometry, P-selectin (CD62P) exposure, α-granule release; assay type: cell-based; settings: 0.025 U/ml thrombin, 10 μM STO-609
# Procedure: Flow cytometric analysis was performed on a FACScan (Becton Dickinson). Washed human platelets (2·10^5 platelets/μl) were pre-incubated with DMSO/STO-609 for 2 min and then treated with or without thrombin (0.025 U/ml) in the presence of excessive amounts of FITC-conjugated monoclonal antibody (anti-CD62P (BD Biosciences) or PAC-1 (BD Biosciences)) at room temperature. The samples were then fixed at 4° C. for 30 min with 2% paraformaldehyde. The levels of P-selectin expression and PAC1 binding were expressed as the percentages of cells positive for anti-CD62P and PAC-1, respectively. The negative cut-off for each antibody was set using resting platelets that gave less than 5% of cells positive for binding of anti-CD62P or PAC-1. In addition, the effect of STO-609 on α-granule release was determined by measuring the exposure on platelet surface of P-selectin (CD62P).
smiles,measurement,setting,value
O=C(O)c1ccc2c3c1cccc3c(=O)n1c3ccccc3nc21 [STO-609],"AMPK activation, as judged by phosphorylation of AMPK Thr172",[1],markedly reduced
same,CD62P detection per platelet in response to thrombin (α-granule release),[2],significantly inhibited; also recorded: prevents
